Laboratory results as given in patent US5750136A, “Bioadhesive composition and patch” (priority 1995, dated 1998).

C[C@H]1O[C@@H](O[C@H]2[C@@H](O)C[C@H](O[C@H]3[C@@H](O)C[C@H](O[C@H]4CC[C@@]5(C)[C@H](CC[C@@H]6[C@@H]5C[C@@H](O)[C@]5(C)[C@@H](C7=CC(=O)OC7)CC[C@]65O)C4)O[C@@H]3C)O[C@@H]2C)C[C@H](O)[C@@H]1O [digoxin]
bioavailability of digoxin is substantial for a period (from patches of Examples 2-4): at least 24 h
delivery from bioadhesive compositions (in words, Table I): delivered in a sustained fashion
